Key:
EGF-R (HER-1) = target: T1, EGF-R (HER-1) (Homo sapiens, UniProt P00533); experiment: Inhibition of EGF-R (HER-1) tyrosine kinase activity; assay type: biochemical; details: recombinant intracellular domain of the EGF-receptor
T1 construct: using the recombinant intracellular domain of the EGF-receptor [EGF-R ICD
Procedure: J. Biochem. 207, 265-275 (1992)]. Compared with the control without inhibitor, the compounds of formula I inhibit the enzyme activity by 50% (IC50), for example in a concentration of from 0.0005 to 0.5 μM, especially from 0.001 to 0.1 μM.
(§1) Inhibition of the tyrosine kinase Activity of EGF-R (HER-1), ErbB-2 (HER-2) and VEGF Receptor (KDR)
(§2) The inhibition tests are carried out as described above.

VEGF Receptor (KDR) = target: T2, VEGF Receptor (KDR) (Homo sapiens, UniProt P35968); experiment: Inhibition of VEGF receptor (KDR) tyrosine kinase activity; assay type: biochemical
T2 construct: as in the cited Wood et al. 2000 method
T2 sequence (P35968 834-1162 limits assumed): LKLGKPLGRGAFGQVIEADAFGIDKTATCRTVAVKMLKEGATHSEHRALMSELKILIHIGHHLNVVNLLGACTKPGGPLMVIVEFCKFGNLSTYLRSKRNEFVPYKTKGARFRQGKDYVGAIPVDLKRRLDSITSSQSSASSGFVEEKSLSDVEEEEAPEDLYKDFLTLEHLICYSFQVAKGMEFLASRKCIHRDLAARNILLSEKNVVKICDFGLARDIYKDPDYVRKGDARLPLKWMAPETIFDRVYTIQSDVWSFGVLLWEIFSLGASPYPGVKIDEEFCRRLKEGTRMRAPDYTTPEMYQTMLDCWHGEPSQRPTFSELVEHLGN
Procedure: The compounds of the present invention are therefore very effective dual inhibitors of EGF- and VEGF-receptor family members. For inhibition of KDR and Flt-1 and inhibition of growth factor-induced proliferation of HUVECS see J. Wood et al., Cancer Res. 60, 2178-2189 (2000). The compounds of formula I inhibit e.g. the KDR tyrosine kinase activity with an IC50 of from about 1 nM to about 1 μM, especially from about 5 nM to about 0.5 μM.
as §1, §2

ErbB-2 (HER-2) = ErbB-2 (HER-2) (Homo sapiens, UniProt P04626); experiment: Inhibition of ErbB-2 (HER-2) tyrosine kinase activity; assay type: biochemical
Chain of ErbB-2 (HER-2) (P04626 23-1255): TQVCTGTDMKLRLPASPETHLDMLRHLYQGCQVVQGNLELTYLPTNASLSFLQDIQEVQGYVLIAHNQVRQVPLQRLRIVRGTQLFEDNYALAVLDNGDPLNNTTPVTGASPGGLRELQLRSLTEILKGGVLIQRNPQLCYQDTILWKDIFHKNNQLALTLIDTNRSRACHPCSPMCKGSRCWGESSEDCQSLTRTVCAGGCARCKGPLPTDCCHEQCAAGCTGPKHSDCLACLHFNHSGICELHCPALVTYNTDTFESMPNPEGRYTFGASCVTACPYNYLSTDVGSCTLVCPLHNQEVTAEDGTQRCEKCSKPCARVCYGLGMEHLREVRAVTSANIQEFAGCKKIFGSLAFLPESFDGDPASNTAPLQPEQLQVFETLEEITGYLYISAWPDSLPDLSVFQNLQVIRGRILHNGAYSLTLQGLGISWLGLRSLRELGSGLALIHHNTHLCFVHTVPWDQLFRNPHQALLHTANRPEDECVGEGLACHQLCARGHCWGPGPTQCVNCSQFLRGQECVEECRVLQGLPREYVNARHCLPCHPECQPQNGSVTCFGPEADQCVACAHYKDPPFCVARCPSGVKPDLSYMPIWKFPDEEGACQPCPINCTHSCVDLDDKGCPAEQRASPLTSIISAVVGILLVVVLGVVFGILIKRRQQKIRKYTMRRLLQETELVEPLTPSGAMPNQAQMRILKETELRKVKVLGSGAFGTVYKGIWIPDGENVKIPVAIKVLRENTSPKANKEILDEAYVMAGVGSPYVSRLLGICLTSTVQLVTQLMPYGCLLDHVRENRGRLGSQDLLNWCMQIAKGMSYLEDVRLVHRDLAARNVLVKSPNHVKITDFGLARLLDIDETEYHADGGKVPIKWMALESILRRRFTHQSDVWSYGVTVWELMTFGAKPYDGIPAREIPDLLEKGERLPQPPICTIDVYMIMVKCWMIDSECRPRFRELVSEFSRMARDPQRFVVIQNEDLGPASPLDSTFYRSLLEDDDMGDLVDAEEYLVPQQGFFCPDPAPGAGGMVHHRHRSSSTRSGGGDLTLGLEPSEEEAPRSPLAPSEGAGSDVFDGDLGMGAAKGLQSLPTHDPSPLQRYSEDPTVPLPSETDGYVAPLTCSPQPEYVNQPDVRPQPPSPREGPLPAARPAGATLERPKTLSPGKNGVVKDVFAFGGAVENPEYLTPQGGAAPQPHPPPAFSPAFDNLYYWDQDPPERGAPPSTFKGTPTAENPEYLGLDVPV
Procedure: The inhibitory activity (IC50) is approximately in the range of 0.001 to 0.5 μM. The inhibition of ErbB2 tyrosine kinase (HER-2) can be determined, for example, analogously to the method used for EGF-R protein tyrosine kinase [see C. House et al., Europ. J. Biochem. 140. 363-367 (1984)]. The ErbB-2 kinase can be isolated, and its activity determined, by means of protocols known per se, for example in accordance with T. Akiyama et al., Science 232 1644 (1986).
as §1, §2

T1 sequence (P00533 669-1210 limits assumed): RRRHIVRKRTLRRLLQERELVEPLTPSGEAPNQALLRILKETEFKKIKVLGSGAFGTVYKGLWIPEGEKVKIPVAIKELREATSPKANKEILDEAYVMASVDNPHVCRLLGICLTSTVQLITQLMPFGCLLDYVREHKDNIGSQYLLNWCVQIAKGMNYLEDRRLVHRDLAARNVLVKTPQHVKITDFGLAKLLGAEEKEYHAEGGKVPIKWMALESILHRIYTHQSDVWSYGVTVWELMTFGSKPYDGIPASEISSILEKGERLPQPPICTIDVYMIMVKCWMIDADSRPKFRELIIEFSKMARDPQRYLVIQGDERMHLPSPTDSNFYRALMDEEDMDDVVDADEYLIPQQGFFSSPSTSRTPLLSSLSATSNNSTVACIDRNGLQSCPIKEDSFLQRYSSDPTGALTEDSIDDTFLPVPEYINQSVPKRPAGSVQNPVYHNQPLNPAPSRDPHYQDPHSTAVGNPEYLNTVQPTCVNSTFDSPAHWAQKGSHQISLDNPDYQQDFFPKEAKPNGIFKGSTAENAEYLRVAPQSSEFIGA

IC50 (EGF-R (HER-1)) [nM] | IC50 (VEGF Receptor (KDR)) [nM] | IC50 (ErbB-2 (HER-2)) [nM] | melting point [°C] | SMILES
16 | 3 | 34 | 280 | CCN1CCN(c2ccc(Nc3nccc(-c4c[nH]nc4-c4ccc(C)cc4)n3)cc2)CC1 [Example 109, [4-(4-Ethyl-piperazin-1-yl)-phenyl]-[4-(3-p-tolyl-1H-pyrazol-4yl)-pyrimidin-2-yl]-amine]
18 | 10 | 23 | 282 to 284 | CN1CCN(c2ccc(Nc3nccc(-c4c[nH]nc4-c4ccc(Cl)cc4)n3)cc2)CC1 [Example 1, {4-[3-(4-Chloro-phenyl)1H-pyrazol-4yl]-pyrimidin-2-yl}-[4-(4-methyl-piperazin-1-yl)-phenyl]-amine]
9 | 21 | < 10 | 369 | Clc1ccc(-c2n[nH]cc2-c2ccnc(Nc3ccc(-c4nnn[nH]4)cc3)n2)cc1 [Example 116, {4-[3-(4-Chloro-phenyl)-1H-pyrazol-4-yl]-pyrimidin-2-yl}-[4-(1H-tetrazol-5-yl)-phenyl]-amine]

From US7691855B2, “Phenyl-[4-(3-phenyl-1h-pyrazol-4-yl)-pyrimidin-2-yl)-amine derivatives” (Novartis AG, priority 2002, dated 2010)
